Test [1] relates to MDA-MB-435 cells. Nature of the test: Cell cycle analysis by FACS. It counts as cell-based. Conditions: 24 hours, 20 nM epothilone A. As to the method:
(§1) Cells are fixed by resuspending in cold 70% ethanol, washing again with 5 ml of PBS and resuspending in PI solution ([…] propidium iodide, 38 mM sodium citrate, 20 μg/ml RNAse A). After incubation in PI solution at 37° C. for 30 minutes, cells are analyzed by flow cytometry according to conventional methodology (apparatus and software commercially available from Becton Dickinson Immunocytometry Systems, CA).
(§2) Cell cycle distribution patterns of epothilone A resistant and parental MDA-MB-435 epothilone A sensitive cells are compared by standard FACS analysis. […] Thus, a significant part of the epothilone A resistant cell population appears to overcome the G2/M block that normally occurs in the cell cycle of epothilone A sensitive cells.
For orientation: In flow cytometry, cells or beads pass a laser one at a time.

In test [2] the test system is EA60 cells. Nature of the test: Cell cycle analysis by FACS. It counts as cell-based. The conditions noted are these: 24 hours, 60 nM epothilone A. As to the method:
as §1, §2

Molecules are shown by their SMILES.

For the compound `C/C(=C\c1csc(C)n1)[C@@H]1C[C@@H]2O[C@@H]2CCC[C@H](C)[C@H](O)[C@@H](C)C(=O)C(C)(C)[C@@H](O)CC(=O)O1` [Epothilone A, epothilone A], the cell cycle distribution entry in test [1] is “blocked at the G2/M phase”; in test [2], “overcomes the G2/M phase block”.

For the origin of these results see patent US20070134744A1, “Epothilone resistant cell lines” (priority 2000, published 2007).
